The record followed here is paper PMC6996298 (Frontiers in Plant Science, 2020).

In one data set the target is T1, VvSWEET7 (Vitis vinifera, UniProt A0ACM8QLM4).
T1 construct: gene VIT_02s0025g02080; full-length cDNA in pYES-DEST52 (GAL1 promoter), expressed in hxt-null S. cerevisiae EBY.VW4000
T1 sequence (A0ACM8QLM4 1-260): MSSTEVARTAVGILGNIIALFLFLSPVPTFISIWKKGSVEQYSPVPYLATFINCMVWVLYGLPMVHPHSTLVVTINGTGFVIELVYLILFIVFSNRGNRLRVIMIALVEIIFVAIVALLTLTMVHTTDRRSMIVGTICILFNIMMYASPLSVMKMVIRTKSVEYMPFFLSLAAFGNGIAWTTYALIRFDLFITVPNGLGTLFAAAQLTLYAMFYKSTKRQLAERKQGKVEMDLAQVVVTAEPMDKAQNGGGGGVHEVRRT
Description: inhibition of D-[…]-glucose uptake in yeast EBY.VW4000. The class given is cell-based. To be noted: read-out: % inhibition at 500 mM.

Substrate in data set [1]: OC[C@H]1O[C@@](CO)(O[C@H]2O[C@H](CO)[C@@H](O)[C@H](O)[C@H]2O)[C@@H](O)[C@@H]1O
Description: initial uptake of radiolabelled sugar in yeast EBY.VW4000, Michaelis-Menten. The class given is cell-based, Vitis vinifera. Conditions: labelled compound, 7.5-125 mM, KH2PO4 pH 5.0, 30 °C, 3 min.

On to `OC[C@@H](O)[C@@H](O)[C@H](O)[C@H](O)CO` [mannitol], for which, on VvSWEET7, the inhibition at 500000 µM was determined as 29%.

For the molecule `OCC1(O)OC[C@@H](O)[C@@H](O)[C@@H]1O` (some centres unmarked) [fructose], the inhibition at 500000 µM at VvSWEET7 worked out at 79%.

Regarding `OC[C@@H](O)[C@@H](O)[C@H](O)[C@@H](O)CO` [sorbitol], the inhibition at 500000 µM at VvSWEET7 was found to be 38%.

As for `OC[C@H]1OC(O)[C@H](O)[C@@H](O)[C@H]1O` (some centres unmarked) [galactose], the inhibition at 500000 µM at VvSWEET7 came to 56%.

B1: VvSWEET7 (Vitis vinifera) (protein)
chain: MSSTEVARTAVGILGNIIALFLFLSPVPTFISIWKKGSVEQYSPVPYLATFINCMVWVLYGLPMVHPHSTLVVTINGTGFVIELVYLILFIVFSNRGNRLRVIMIALVEIIFVAIVALLTLTMVHTTDRRSMIVGTICILFNIMMYASPLSVMKMVIRTKSVEYMPFFLSLAAFGNGIAWTTYALIRFDLFITVPNGLGTLFAAAQLTLYAMFYKSTKRQLAERKQGKVEMDLAQVVVTAEPMDKAQNGGGGGVHEVRRT
notes: full-length cDNA in pYES-DEST52 (GAL1 promoter), expressed in hxt-null S. cerevisiae EBY.VW4000
For the molecule B1, the Km in data set [1] is listed as 40.08 mM.
